# Measured values as given in ChEMBL document CHEMBL4346735, “Discovery and pharmacological evaluation of indole derivatives as potent and selective RORγt inverse agonist for multiple autoimmune conditions” (Bioorg Med Chem Lett, 2019).
# Key:
# [1] = Transrepression of RORgammat in cytostim stimulated human whole blood assessed as suppression of IL-17 secretion incubated for 24 hrs; format: tissue-based
# [2] = Metabolic stability in mouse hepatocytes assessed as parent compound remaining after 60 mins; format: ADME, cell-based, Hepatocyte; conditions: read-out: Stability
# [3] = target: T1, Nuclear receptor ROR-gamma (Mus musculus, UniProt P51450); experiment: Transrepression of RORgammat in Balb/c mouse splenocytes assessed as reduction in anti-CD3/anti-CD28 stimulated IL-17 level measured after 48 hrs in presence of anti-CD3/anti-CD28 by ELISA; format: cell-based
# T1 sequence (P51450 whole entry): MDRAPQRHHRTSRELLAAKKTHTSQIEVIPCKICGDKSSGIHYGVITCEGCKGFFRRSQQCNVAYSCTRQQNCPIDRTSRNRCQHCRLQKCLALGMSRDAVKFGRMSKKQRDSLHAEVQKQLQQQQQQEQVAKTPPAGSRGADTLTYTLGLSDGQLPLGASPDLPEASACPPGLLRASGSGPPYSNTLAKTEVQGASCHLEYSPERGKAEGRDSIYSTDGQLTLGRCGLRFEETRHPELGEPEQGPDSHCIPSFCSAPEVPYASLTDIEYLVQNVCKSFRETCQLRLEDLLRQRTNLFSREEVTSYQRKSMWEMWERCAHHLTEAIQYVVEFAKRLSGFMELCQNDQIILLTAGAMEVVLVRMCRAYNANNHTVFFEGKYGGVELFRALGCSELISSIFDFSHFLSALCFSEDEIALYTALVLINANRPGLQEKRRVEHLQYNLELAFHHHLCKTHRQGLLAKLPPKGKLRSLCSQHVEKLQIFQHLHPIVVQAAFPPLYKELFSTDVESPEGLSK
# [4] = Volume of distribution at steady state in mouse at 3 mg/kg, iv; format: ADME, organism-based; conditions: in vivo, read-out: Vdss
# [5] = Plasma protein binding in dog; format: ADME, Canis lupus familiaris; conditions: read-out: PPB
# [6] = Mutagenicity in Salmonella typhimurium by mini Ames test; format: toxicity; conditions: salmonella enterica subsp. enterica serovar typhimurium
# [7] = test system: Mus musculus; experiment: Immunosuppressive activity in MOG (35 to 55 residues)/pertussis toxin-induced experimental allergic encephalomyelitis C57BL/6J mouse model assessed as reduction in IL-17F gene expression in spinal cord at 30 mg/kg, po bid measured at day 19 post MOG immunization/pertusis immunization relative to control; format: functional; conditions: 456 h
# [8] = target: T2, Nuclear receptor ROR-alpha (Homo sapiens, UniProt P35398); experiment: Inhibition of GAL4-DBD fused RORalpha LBD (unknown origin) expressed in HEK293T cells; format: cell-based
# T2 sequence (P35398 whole entry): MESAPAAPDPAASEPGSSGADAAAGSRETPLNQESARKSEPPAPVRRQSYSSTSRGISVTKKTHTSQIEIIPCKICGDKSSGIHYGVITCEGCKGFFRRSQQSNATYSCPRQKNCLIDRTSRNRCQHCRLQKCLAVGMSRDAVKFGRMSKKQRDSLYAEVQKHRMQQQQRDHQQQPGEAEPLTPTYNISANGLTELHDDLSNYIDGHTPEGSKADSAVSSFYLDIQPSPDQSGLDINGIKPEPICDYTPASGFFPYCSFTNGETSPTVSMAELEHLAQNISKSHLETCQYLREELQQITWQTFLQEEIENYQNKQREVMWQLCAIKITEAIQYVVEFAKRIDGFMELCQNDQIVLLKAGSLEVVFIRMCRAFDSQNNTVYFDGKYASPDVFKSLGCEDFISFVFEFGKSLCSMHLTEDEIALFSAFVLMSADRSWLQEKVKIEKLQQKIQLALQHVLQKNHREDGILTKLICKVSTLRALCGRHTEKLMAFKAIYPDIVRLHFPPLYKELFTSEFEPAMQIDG
# [9] = Plasma protein binding in rat; format: ADME; conditions: read-out: PPB
# [10] = Plasma protein binding in human; format: ADME; conditions: read-out: PPB
# [11] = AUC in mouse skin at 10 mg/kg, po; format: ADME, organism-based, Zone of skin
# [12] = Metabolic stability in simulated intestinal fluid assessed as compound remaining after 2 hrs; format: ADME; conditions: read-out: Stability
# [13] = Metabolic stability in human liver microsomes assessed as parent compound remaining at 1 uM preincubated for 5 mins followed by NADPH addition after 30 mins by LC-MS/MS analysis; format: ADME, Microsome; conditions: read-out: Stability
compound,measurement,setting,value
O=C(O)c1ccc(-n2cc(C(=O)c3c(Cl)cccc3Cl)c3cccc(F)c32)cc1,IC50,[1],490 nM
same,remaining at 1 h,[2],80%
same,IC50,[3],500 to 503 nM
same,Vd,[4],4.8 L/kg
same,fraction unbound,[5],0.01
same,Activity,[6],Non-Toxic
same,inhibition in vivo at 30 mg/kg,[7],70%
same,IC50,[8],> 10000 nM
same,fraction unbound,[9],0.01
same,fraction unbound,[10],< 0.03
same,AUC,[11],11 µM·h
same,remaining at 2 h,[12],99%
same,"remaining at 0.5 h, 1 µM",[13],88%
